According to paper PMC12041767 (Journal of immunology (Baltimore, Md. : 1950), 2025):

Tests used:
[1] = target: HLA-E*01:03 (Homo sapiens, UniProt P13747); type: binding; settings: S/P relative to positive control […] or […], tested at least two times, median, Figure 1
[2] = target: NKG2A/CD94 (Homo sapiens, UniProt P26715+Q13241); type: binding
NKG2A/CD94, sequence (P26715 whole entry): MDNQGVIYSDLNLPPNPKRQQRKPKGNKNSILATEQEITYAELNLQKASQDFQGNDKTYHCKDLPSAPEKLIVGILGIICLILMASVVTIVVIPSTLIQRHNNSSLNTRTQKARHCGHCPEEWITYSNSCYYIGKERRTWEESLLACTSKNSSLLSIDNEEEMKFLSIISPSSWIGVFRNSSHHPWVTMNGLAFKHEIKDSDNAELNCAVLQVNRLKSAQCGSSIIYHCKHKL
NKG2A/CD94, sequence (Q13241 whole entry): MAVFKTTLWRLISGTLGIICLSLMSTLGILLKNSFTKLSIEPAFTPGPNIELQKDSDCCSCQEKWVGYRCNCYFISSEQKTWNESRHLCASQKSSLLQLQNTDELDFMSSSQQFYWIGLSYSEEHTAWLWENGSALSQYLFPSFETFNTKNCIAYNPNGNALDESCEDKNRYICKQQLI

Sequence | Peptide binding affinity for HLA-E*01:03 (signal to positive, S/P, ratio), in words [1] | Interaction of thermal exchanged HLA-E TM/peptide complex with NKG2A/CD94, in words [2]
VMAPRTLVL [Mtb55-VL9-hybrid] | increased the affinity | could interact
VMTPRTLTL [Mtb34-VL9-hybrid] | increased the affinity | –
